Experimental data taken from US20250206745A1, “PYRROLOPYRIDAZINE DERIVATIVES AND RELATED USES” (NodThera Limited, priority 2023, published 2025).
Structures can show the parent of a compound that is named as a salt.

Columns and labels:
[1] = test system: IL-1β release upon NLRP3 activation in phorbol 12-myristate 13-acetate (PMA)-differentiated THP-1 cells; experiment: THP-1 IC50 Determination Assay; assay type: cell-based; details: Homo sapiens, inhibition of IL-1β release, LPS, nigericin, ELISA
Outline: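 THP-1 cells differentiated with 5 ng/mL PMA for ~40 h, plated 30,000/well and primed 2 h with 25 ng/mL LPS. Compounds added as 8-point 1:3 series (0.5% DMSO), then nigericin activation for 2 h at 37 °C; supernatant IL-1β measured by ELISA.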

[2] = test system: IL-1β release upon NLRP3 activation in peripheral blood mononuclear cells (PBMC); experiment: PBMC IC50 Determination Assay; assay type: cell-based; details: Homo sapiens; inhibition of IL-1β release; PBMC primed with LPS, stimulated with ATP or nigericin; ELISA or HTRF
Outline: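 Human buffy-coat PBMC primed 3 h with LPS (1 μg/mL in Protocol B), given compound for 30 min, then stimulated 1 h with 5 mM ATP or 10 μM nigericin (Protocol A) or 5 mM ATP (Protocol B). IL-1β in supernatant measured by ELISA at 450 nm (A) or HTRF (B).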

Work on `CC(=O)N1CCCCC1Cn1ccc2cc(-c3c(C)cc(Cl)cc3O)nnc21` (centres unmarked) [Compound 57, 1-(2-{[3-(4-Chloro-2-hydroxy-6-methylphenyl)-7H-pyrrolo[2,3-c]pyridazin-7-yl]methyl}piperidin-1-yl)ethan-1-one] yielded an IC50 [1] of 30 to 100 nM and an IC50 [2] of 30 to 100 nM.
Molecule `Cc1cc(Cl)cc(O)c1-c1cc2ccn(CC(=O)N(C)C3COC3)c2nn1` [Compound 58, 2-[3-(4-Chloro-2-hydroxy-6-methylphenyl)-7H-pyrrolo[2,3-c]pyridazin-7-yl]-N-methyl-N-(oxetan-3-yl)acetamide] has an IC50 [1] of 100 to 300 nM and an IC50 [2] of 100 to 300 nM.
`Cc1cc(Cl)cc(O)c1-c1cc2ccn(CC(=O)N(C)[C@H]3CCOC3)c2nn1` [Compound 59, 2-[3-(4-Chloro-2-hydroxy-6-methylphenyl)-7H-pyrrolo[2,3-c]pyridazin-7-yl]-N-methyl-N-[(3S)-oxolan-3-yl]acetamide] gave an IC50 [1] of 100 to 300 nM and an IC50 [2] of 30 to 100 nM.
For `Cc1cc(Cl)cc(O)c1-c1cc2ccn(CC3CCN(C=O)CC3)c2nn1` [Compound 63, 4-{[3-(4-Chloro-2-hydroxy-6-methylphenyl)-7H-pyrrolo[2,3-c]pyridazin-7-yl]methyl}piperidine-1-carbaldehyde], the IC50 [1] was 30 to 100 nM and the IC50 [2] was < 30 nM.
`Cc1cc(Cl)cc(O)c1-c1cc2ccn(CC3CCC(=O)N3C)c2nn1` (centres unmarked) [Compound 65, 5-{[3-(4-Chloro-2-hydroxy-6-methylphenyl)-7H-pyrrolo[2,3-c]pyridazin-7-yl]methyl}-1-methylpyrrolidin-2-one] was tested, and the IC50 [1] was 30 to 100 nM and the IC50 [2] was 30 to 100 nM.
In the case of `Cc1cc(Cl)cc(O)c1-c1cc2ncn(CC3CCN(C)CC3)c2nn1` [Compound 71, 5-Chloro-3-methyl-2-{7-[(1-methylpiperidin-4-yl)methyl]-7H-imidazo[4,5-c]pyridazin-3-yl}phenol], the IC50 [1] is reported as 30 to 100 nM and the IC50 [2] is reported as < 30 nM.
For `CC(=O)N1CCC(Cn2cnc3cc(-c4c(C)cc(Cl)cc4O)nnc32)CC1` [Compound 72, 1-(4-{[3-(4-Chloro-2-hydroxy-6-methylphenyl)-7H-imidazo[4,5-c]pyridazin-7-yl]methyl}piperidin-1-yl)ethan-1-one], the IC50 [1] was 30 to 100 nM and the IC50 [2] was 30 to 100 nM.
`Cc1cc(C#N)cc(O)c1-c1cc2ncn(CC3CCN(C)CC3)c2nn1` [Compound 73, 3-Hydroxy-5-methyl-4-{7-[(1-methylpiperidin-4-yl)methyl]-7H-imidazo[4,5-c]pyridazin-3-yl}benzonitrile] showed an IC50 [1] of 300 to 1000 nM and an IC50 [2] of 100 to 300 nM.
In the case of `Cc1cc(Cl)cc(O)c1-c1cc2ncn(C[C@H]3CCN(C)C3)c2nn1` [Compound 74, 5-Chloro-3-methyl-2-(7-{[(3S)-1-methylpyrrolidin-3-yl]methyl}-7H-imidazo[4,5-c]pyridazin-3-yl)phenol hydrochloride], the IC50 [1] is reported as 30 to 100 nM and the IC50 [2] is reported as 30 to 100 nM.
`Cc1cc(Cl)cc(O)c1-c1cc2ncn(C[C@@H]3CCN(C)C3)c2nn1` [Compound 75, 5-Chloro-3-methyl-2-(7-{[(3R)-1-methylpyrrolidin-3-yl]methyl}-7H-imidazo[4,5-c]pyridazin-3-yl)phenol hydrochloride] showed an IC50 [1] of 100 to 300 nM and an IC50 [2] of 30 to 100 nM.
In the case of `Cc1cc(C)c(-c2cc3ncn(CC4CCN(C)CC4)c3nn2)c(O)c1` [Compound 76, 3,5-Dimethyl-2-{7-[(1-methylpiperidin-4-yl)methyl]-7H-imidazo[4,5-c]pyridazin-3-yl}phenol], the IC50 [1] is reported as 30 to 100 nM and the IC50 [2] is reported as 30 to 100 nM.
In the case of `Cc1cc(Cl)cc(O)c1-c1cc2ncn(CC(=O)N(C)C)c2nn1` [Compound 77, 2-[3-(4-Chloro-2-hydroxy-6-methylphenyl)-7H-imidazo[4,5-c]pyridazin-7-yl]-N,N-dimethylacetamide], the IC50 [1] is reported as 100 to 300 nM and the IC50 [2] is reported as 30 to 100 nM.
`Cc1cc(Cl)cc(O)c1-c1cc2ncn(CC3(F)CCN(C)CC3)c2nn1` [Compound 78, 5-Chloro-2-{7-[(4-fluoro-1-methylpiperidin-4-yl)methyl]-7H-imidazo[4,5-c]pyridazin-3-yl}-3-methylphenol hydrochloride] gave an IC50 [1] of 30 to 100 nM and an IC50 [2] of 30 to 100 nM.
